Test results published in US20110236316A1, “PEPTIDE TARGETING IMAGING AGENTS AND METHODS OF USE THEREOF” (University of Utah Research Foundation, priority 2008, published 2011).

Experiments:
[1] = test system: MDA-MB-231 human breast carcinoma xenografts; assay: In vivo MR molecular imaging in MDA-MB-231 xenografts; set-up: species or system mice
[2] = test system: HT-29 human colon carcinoma xenografts; assay: In vivo MR molecular imaging in HT-29 xenografts; set-up: species or system mice; settings: 0.1 mmol/kg iv
Experimental: In vivo molecular imaging of fibrin-fibronectin complexes in tumor with the targeted contrast agent and MRI was evaluated in female athymic nu/nu mice bearing HT-29 human colon carcinoma xenografts with a T1-weighted 2D spin-echo sequence. A clinical contrast agent, Gd(DTPA-BMA), was used as a control. Competitive targeting of free CLT1 peptide to CLT1-(Gd-DTPA) was also studied with coinjection of CLT1-(Gd-DTPA) and a 3-fold excess of free CLT1 peptide. A group of 3 mice were used for each contrast agent. The mice were anesthetized by intramuscular administration of a mixture of ketamine (45 mg/kg) and xylazine (6 mg/kg) for MRI. The CLT1-(Gd-DTPA) and Gd(DTPA-BMA) was intravenously injected at a dose of 0.1 mmol/kg. Contrast enhanced MR images were acquired before and after injection at 1, 10, 20, 30 and 60 minutes on a Siemens Trio 3T scanner using a human wrist coil. High resolution 3D images were acquired with a 3D FLASH sequence with 25° flip angel, TR/TE=7.8/2.7 ms, slice thickness 0.5 mm, field of view (FOV) 120 mm, voxel size 0.5×0.5×0.5 mm T1-weighted 2D axial tumor images were acquired with a 2D spin echo sequence with TR 400 ms, TE 10 ms, 90° tip angel and FOV 50 mm Mice were sacrificed 24 hours post-injection and tumor tissues were cut and fixed with 3% paraformaldehyde and embedded in paraffin. Tissue sections (4-μm thickness) were incubated in 3% H2O2 for 10 minutes to block endogenous peroxidase activity and boiled in antigen retrieval solution for 15 minutes in microwave. The sections were then incubated with primary antibody overnight and secondary antibody the second day for visualization using the ABC kit (Santa Cruz Biotechnology).
MR signal intensity was also measured and the contrast to noise ratio (CNR) in the tumor tissues was calculated as CNR=(SItissue−SImuscle)/SDnoise.

[3] = up to 60 minutes post-injection

**Q.** What does the source list for CNC(=O)CN(CCN(CCN(CC(=O)[O-])CC(=O)NC)CC(=O)[O-])CC(=O)[O-].[Gd+3] [Gd(DTPA-BMA)]?
**A.** tumor enhancement (T1-weighted 2D spin-echo MRI) ([1]; after 30 minutes post-injection, 0.1 mmol/kg): decreased significantly; tumor enhancement (T1-weighted 2D spin-echo MRI) ([1]; first 15 minutes post-injection, CLT1-(Gd-DTPA) 0.05 mmol/kg, Gd(DTPA-BMA) 0.1 mmol/kg): Significant tumor enhancement; tumor enhancement compared with CLT1-(Gd-DTPA) [2]: didn't show a strong tumor enhancement; CNR time course, tumor inner area [2, 3]: decreased rapidly; CNR time course, tumor periphery [2, 3]: decreased rapidly
